Experimental data published in patent US20260083129A1, “PYRAZOLE AMIDE INSECTICIDES” (FMC CORPORATION, priority 2022, published 2026).

System: cotton melon aphid (Aphis gossypii (Glover))
Assay: Test C: control of cotton melon aphid on sprayed okra plant
Assay type: in vivo
Details: sprayed at 250 ppm; assessed after 6 days
Protocol: Test compounds were formulated using a solution containing 10% acetone, 90% water and 300 ppm Activator 90@non-ionic surfactant (Loveland Products, Loveland, Colorado, USA). The formulated compounds were applied in 1 mL of liquid through an atomized nozzle positioned 1.27 cm (0.5 inches) above the top of each test unit. Test compounds were sprayed at the rates indicated, and each test was replicated three times.
For evaluating control of cotton melon aphid (Aphis gossypii (Glover)) through contact and/or systemic means, the test unit consisted of a small open container with a 5-day-old okra plant inside. This was pre-infested with 30-40 insects on a piece of leaf according to the cut-leaf method, and the soil of the test unit was covered with a layer of sand.
Test compounds were formulated and sprayed at 250, 50, 10, and 2 ppm with three replications as described above. After spraying, the test units were maintained in a growth chamber for 6 days at 19° C. and 70% relative humidity. Each test unit was then visually assessed for insect mortality.

Q: How did the mortality turn out when `CC(c1c([N+](=O)[O-])cnn1-c1ncccn1)N(C)C(=O)c1cc(C(F)(F)F)cc(C(F)(F)F)c1` (stereo not shown) [Compound 96] was run?
A: The mortality was “at least 80%”.
